Experimental data as given in US6617334B2, “Antidepressant azaheterocyclylmethyl derivatives of 7,8-dihydro-1,6,9-trioxa-3-aza-cyclopenta[a]naphthalene” (Wyeth, priority 2001, dated 2003).
pIC50, pKi: −log10 of the molar value. Structures can show the parent of a compound that is named as a salt.

Legend:
[1] = biological target: T1, serotonin transporter (Rattus norvegicus, UniProt P31652); experiment: 3H-paroxetine displacement, affinity for the serotonin transporter; type: binding
T1 construct: displace ^3H-paroxetine from male rat frontal cortical membranes; from tissue; host or cells: male rat frontal cortex membranes
T1 sequence (P31652 whole entry): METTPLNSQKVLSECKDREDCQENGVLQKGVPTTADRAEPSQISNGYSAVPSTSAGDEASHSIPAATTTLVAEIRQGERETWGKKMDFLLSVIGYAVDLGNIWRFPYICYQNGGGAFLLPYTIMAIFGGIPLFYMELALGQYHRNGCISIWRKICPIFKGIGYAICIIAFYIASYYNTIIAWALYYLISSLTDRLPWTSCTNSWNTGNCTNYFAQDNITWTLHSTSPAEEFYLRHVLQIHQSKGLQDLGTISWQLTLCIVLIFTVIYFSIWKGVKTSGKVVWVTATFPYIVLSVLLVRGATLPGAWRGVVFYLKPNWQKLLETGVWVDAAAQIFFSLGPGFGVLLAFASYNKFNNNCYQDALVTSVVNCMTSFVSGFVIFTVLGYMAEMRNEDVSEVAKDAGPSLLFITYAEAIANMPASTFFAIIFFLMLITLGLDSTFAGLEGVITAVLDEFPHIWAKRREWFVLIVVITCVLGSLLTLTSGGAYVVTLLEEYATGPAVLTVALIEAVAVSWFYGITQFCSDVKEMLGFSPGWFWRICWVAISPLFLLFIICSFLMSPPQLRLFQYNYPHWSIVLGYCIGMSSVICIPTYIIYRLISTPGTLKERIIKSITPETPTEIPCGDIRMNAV

[2] = biological target: T2, human 5-HT1A receptors (Homo sapiens, UniProt P08908); experiment: [3H] 8-OHDPAT displacement from the 5-HT1A receptor in transfected CHO cells; type: binding
T2 construct: expressed in transfected cells; host or cells: CHO cells, stably transfected
T2 sequence (P08908 1-422): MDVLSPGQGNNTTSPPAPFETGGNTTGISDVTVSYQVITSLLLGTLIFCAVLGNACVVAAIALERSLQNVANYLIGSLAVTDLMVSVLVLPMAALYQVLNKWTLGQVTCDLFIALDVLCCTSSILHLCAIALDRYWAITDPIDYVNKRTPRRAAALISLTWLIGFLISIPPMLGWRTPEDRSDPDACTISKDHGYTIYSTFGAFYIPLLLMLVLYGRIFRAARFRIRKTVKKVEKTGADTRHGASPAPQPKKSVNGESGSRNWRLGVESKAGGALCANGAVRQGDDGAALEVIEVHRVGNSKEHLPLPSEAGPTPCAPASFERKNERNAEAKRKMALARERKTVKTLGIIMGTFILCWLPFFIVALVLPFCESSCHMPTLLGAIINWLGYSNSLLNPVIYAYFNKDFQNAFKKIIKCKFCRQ
From the text: High affinity for the serotonin 5-HT1A receptor was established by testing the claimed compound's ability to displace [^3H] 8-OHDPAT (dipropylaminotetralin) from the 5-HT1A serotonin receptor following a modification of the procedure of Hall et al., J. Neurochem. 44, 1685 (1985) which utilizes CHO cells stably transfected with human 5-HT1A receptors.

[3] = biological target: T3, cloned human 5-HT1A receptors (Homo sapiens, UniProt P08908); experiment: 35S-GTPγS binding assay, antagonist activity at 5-HT1A receptors; type: biochemical; settings: reversal of the effects of the standard agonist 8-OHDPAT; for pIC50: read-out: 5-HT1A Function IC50
T3 construct: expressed in transfected cells
T3 sequence (P08908 1-422): T2 sequence (P08908 1-422)
Method: Antagonist activity at 5-HT1A receptors was established by using a ^35S-GTPγS binding assay similar to that used by Lazareno and Birdsall (Br. J. Pharmacol. 109: 1120, 1993), in which the test compound's ability to affect the binding of ^35S-GTPγS to membranes containing cloned human 5-HT1A receptors was determined. Agonists produce an increase in binding whereas antagonists produce no increase but rather reverse the effects of the standard agonist 8-OHDPAT. The test compound's maximum inhibitory effect is represented as the Imax, while its potency is defined by the IC50.

| Structure (SMILES) | pKi [1] | pKi [2] | 5-HT1A Function Imax (maximum inhibitory effect) [3] | pIC50 [3] | melting point [°C] |
| --- | --- | --- | --- | --- | --- |
| Cc1nc2ccc3c(c2o1)OC(CN1CC=C(c2c[nH]c4ccc(C#N)cc24)CC1)CO3 (stereo not shown) [Example 4, 3-[1-(2-Methyl-7,8-dihydro-1,6,9-trioxa-3-aza-cyclopenta[a]naphthalen-8-ylmethyl)-1,2,3,6-tetrahydro-pyridin-4-yl]-1H-indole-5-carbonitrile] | 8.77 | 8.02 | 100 | 6.94 | – |
| Cc1nc2ccc3c(c2o1)OC(CN1CC=C(c2c[nH]c4ccccc24)CC1)CO3 (stereo not shown) [Example 3, 8-[4-(1H-Indol-3-yl)-3,6-dihydro-2H-pyridin-1-ylmethyl]-2-methyl-7,8-dihydro-1,6,9-trioxa-3-aza-cyclopenta[a]naphthalene] | 8.42 | 8.12 | 100 | 6.55 | 196 |
| Cc1nc2ccc3c(c2o1)OC(CN1CC=C(c2c[nH]c4c(F)cccc24)CC1)CO3 (stereo not shown) | – | – | – | – | 208 to 210 |
| C1=C(c2c[nH]c3ccccc23)CCN(CC2COc3ccc4ncoc4c3O2)C1 (stereo not shown) [Example 1, 8-[4-(1H-Indol-3-yl)-3,6-dihydro-2H-pyridin-1-ylmethyl]-7,8-dihydro-1,6,9-trioxa-3-aza-cyclopenta[a]naphthalene] | 8.40 | 7.99 | 45 | 6.48 | 223 to 224 |
| Cc1nc2ccc3c(c2o1)OC(CN1CC=C(c2c[nH]c4ccc(F)cc24)CC1)CO3 (stereo not shown) [Example 2, 8-[4-(5-Fluoro-1H-indol-3-yl)-3,6-dihydro-2H-pyridin-1-ylmethyl]-2-methyl-7,8-dihydro-1,6,9-trioxa-3-aza-cyclopenta[a]naphthalene] | 8.65 | 8.27 | 100 | 6.74 | 95 |
| Cc1nc2ccc3c(c2o1)OC(CN1CC=C(c2c[nH]c4ccc(C#N)cc24)CC1)CO3 (stereo not shown) (as salt: fumarate) (hydrate or solvate) [Example 4, 3-[1-(2-Methyl-7,8-dihydro-1,6,9-trioxa-3-aza-cyclopenta[a]naphthalen-8-ylmethyl)-1,2,3,6-tetrahydro-pyridin-4-yl]-1H-indole-5-carbonitrile] | – | – | – | – | 119 |
| Cc1nc2ccc3c(c2o1)OC(CN1CC=C(c2c[nH]c4cc(F)ccc24)CC1)CO3 (stereo not shown) | – | – | – | – | 188 to 190 |
